From patent US20250263436A1, “BROAD-SPECTRUM ANTIVIRAL DRUG FOR ENTEROVIRUS, AND APPLICATION” (WUHAN INSTITUTE OF VIROLOGY, CHINESE ACADEMY OF SCIENCES, priority 2020, published 2025) come the findings set out here.

pIC50: −log10 of the molar value. Where “and” joins values, the source holds several entries; their conditions need not be identical. Equal entries are not always repeated. Where no end group is shown, it is not given here.

This experiment relates to EV71. In words: Inhibitory activity on EV71 in RD cells by CCK8 method. In kind it is cell-based, enterovirus 71 (EV71). The following applies: for pIC50: EV71 in RD cells, CCK8 method; for Inhibition rate on EV71 virus (%): RD cells, 0.1 MOI, 24 h, CCK8. Here is the method: (1) RD cells were plated in a 96-well plate at 100 μL per well.
(2) When the cells grew to a confluence of 70%-80%, the DMEM medium containing 10% serum was replaced with a DMEM medium containing 2% serum.
(3) The polypeptide drug was gradiently diluted with the DMEM containing 2% FBS into concentrations of 0.15625 μM, 0.3125 μM, 0.625 μM, 1.25 μM, 2.5 μM, and 5 μM, and then added to a new 96-well plate at 100 μL per well, with 3 replicate wells for each concentration.
(4) The diluted virus was added to the above wells at 100 μL per well. The wells with no drug and no virus added and the wells with no drug but virus added were set as controls respectively, with a final concentration of virus of 0.1 MOI.
(4) The mixture was transferred into the 96-well plate plated with cells for another 24 h of culture, and the inhibitory activity of the polypeptide on the virus was determined by a CCK8 kit.
(5) The inhibition rates of different concentrations of the polypeptides on virus infection were calculated according to a calculation formula of: inhibition rate of polypeptide=(well with drug-well with virus)×100%/(well with no drug-well with virus).
(3) The polypeptide drug was gradiently diluted with the DMEM containing 2% FBS into concentrations of 0.15625 μM, 0.3125 μM, 0.625 μM, 1.25 μM, 2.5 μM, and 5 μM, and then added to a new 96-well plate at 100 μL per well, with 3 replicate wells for each concentration. (4) The diluted virus was added to the above wells at 100 μL per well. The wells with no drug and no virus added and the wells with no drug but virus added were set as controls respectively, with a final concentration of virus of 0.1 MOI.

Molecule `CC[C@H](C)[C@H](NC(=O)[C@H](C)NC(=O)[C@H](CO)NC(=O)[C@H](CCCNC(=N)N)NC(=O)[C@H](CC(N)=O)NC(=O)[C@H](CC(N)=O)NC(=O)[C@H](Cc1ccc(O)cc1)NC(=O)[C@H](CCC(=O)O)NC(=O)CNC(=O)[C@H](CO)NC(=O)CNC(=O)[C@H](CCCNC(=N)N)NC(=O)[C@H](CCCNC(=N)N)NC(=O)[C@H](CCCNC(=N)N)NC(=O)[C@H](CCC(N)=O)NC(=O)[C@H](CCCNC(=N)N)NC(=O)[C@H](CCCNC(=N)N)NC(=O)[C@H](CCCCN)NC(=O)[C@H](CCCCN)NC(=O)[C@H](CCCNC(=N)N)NC(=O)CNC(=O)[C@@H](N)Cc1ccc(O)cc1)C(=O)NCC(=O)N[C@@H](CC(N)=O)C(=O)N[C@H](C(=O)N[C@H](C(=O)N[C@@H](CCC(=O)O)C(=O)N[C@@H](C)C(=O)N[C@@H](CC(C)C)C(=O)N[C@@H](Cc1ccccc1)C(=O)N[C@@H](CCC(N)=O)C(=O)O)[C@@H](C)CC)[C@@H](C)O` [EQ] gave a pIC50 of 5.74. In addition, for the setting “polypeptide 0.15625 μM”, the “Inhibition rate on EV71 virus (%)” value is 6.885% and 4.675% and 10.9434%. Also, the “Inhibition rate on EV71 virus (%)” value (polypeptide 0.3125 μM) was 10.2126% and 12.8194% and 16.4536%. For the same molecule, the “Inhibition rate on EV71 virus (%)” value (polypeptide 0.625 μM) was 21.5745% and 20.64% and 25.9399%. Besides, under “polypeptide 1.25 μM”, the “Inhibition rate on EV71 virus (%)” value is 31.5814% and 30.7778% and 32.9503%. Besides, the “Inhibition rate on EV71 virus (%)” value (polypeptide 2.5 μM) is 62.8263% and 54.1779% and 55.7124%. Under “polypeptide 5 μM”, the “Inhibition rate on EV71 virus (%)” value is 86.8541% and 90.3885% and 78.0023%.

On to `CC[C@H](C)[C@H](NC(=O)[C@H](C)NC(=O)[C@H](CO)NC(=O)[C@H](CCCNC(=N)N)NC(=O)[C@H](CC(N)=O)NC(=O)[C@H](CC(N)=O)NC(=O)CNC(=O)[C@H](CO)NC(=O)CNC(=O)[C@H](CCCNC(=N)N)NC(=O)[C@H](CCCNC(=N)N)NC(=O)[C@H](CCCNC(=N)N)NC(=O)[C@H](CCC(N)=O)NC(=O)[C@H](CCCNC(=N)N)NC(=O)[C@H](CCCNC(=N)N)NC(=O)[C@H](CCCCN)NC(=O)[C@H](CCCCN)NC(=O)[C@H](CCCNC(=N)N)NC(=O)CNC(=O)[C@@H](N)Cc1ccc(O)cc1)C(=O)NCC(=O)N[C@@H](CC(N)=O)C(=O)N[C@H](C(=O)N[C@H](C(=O)N[C@@H](CCC(=O)O)C(=O)N[C@@H](C)C(=O)N[C@@H](CC(C)C)C(=O)N[C@@H](Cc1ccccc1)C(=O)N[C@@H](CCC(N)=O)C(=O)O)[C@@H](C)CC)[C@@H](C)O` [NQ], for which the pIC50 was 5.72. For the same molecule, under “polypeptide 0.15625 μM”, the “Inhibition rate on EV71 virus (%)” value was 4.278% and 5.368% and 8.337%. In addition, the “Inhibition rate on EV71 virus (%)” value (polypeptide 0.3125 μM) is 11.5056% and 17.809% and 19.7228%. Further, the “Inhibition rate on EV71 virus (%)” value (polypeptide 0.625 μM) is 16.7886% and 21.2091% and 24.9365%. Moreover, where the note is “polypeptide 1.25 μM”, the “Inhibition rate on EV71 virus (%)” value was 41.6538% and 40.8779% and 50.5607%. The “Inhibition rate on EV71 virus (%)” value (polypeptide 2.5 μM) was 51.933% and 60.1502% and 57.7744%. For the same molecule, for the setting “polypeptide 5 μM”, the “Inhibition rate on EV71 virus (%)” value is 60.6122% and 74.6708% and 75.3331%.

Consider `CC[C@H](C)[C@H](NC(=O)[C@H](C)NC(=O)[C@H](CO)NC(=O)[C@H](CCCNC(=N)N)NC(=O)CNC(=O)[C@H](CO)NC(=O)CNC(=O)[C@H](CCCNC(=N)N)NC(=O)[C@H](CCCNC(=N)N)NC(=O)[C@H](CCCNC(=N)N)NC(=O)[C@H](CCC(N)=O)NC(=O)[C@H](CCCNC(=N)N)NC(=O)[C@H](CCCNC(=N)N)NC(=O)[C@H](CCCCN)NC(=O)[C@H](CCCCN)NC(=O)[C@H](CCCNC(=N)N)NC(=O)CNC(=O)[C@@H](N)Cc1ccc(O)cc1)C(=O)NCC(=O)N[C@@H](CC(N)=O)C(=O)N[C@H](C(=O)N[C@H](C(=O)N[C@@H](CCC(=O)O)C(=O)N[C@@H](C)C(=O)N[C@@H](CC(C)C)C(=O)N[C@@H](Cc1ccccc1)C(=O)N[C@@H](CCC(N)=O)C(=O)O)[C@@H](C)CC)[C@@H](C)O` [RSQ], for which the pIC50 is 5.59. The “Inhibition rate on EV71 virus (%)” value (polypeptide 0.15625 μM) was 1.471% and 6.588% and 2.826%. Further, the “Inhibition rate on EV71 virus (%)” value (polypeptide 0.3125 μM) was 11.34% and 21.2746% and 16.4228%. Moreover, the “Inhibition rate on EV71 virus (%)” value (polypeptide 0.625 μM) was 18.633% and 25.8298% and 26.1918%. Moreover, for the setting “polypeptide 1.25 μM”, the “Inhibition rate on EV71 virus (%)” value was 40.5468% and 36.4575% and 35.2676%. The “Inhibition rate on EV71 virus (%)” value (polypeptide 2.5 μM) is 53.4848% and 40.7778% and 47.2122%. Moreover, the “Inhibition rate on EV71 virus (%)” value (polypeptide 5 μM) is 58.6022% and 68.9642% and 62.4952%.

Turning to `CC[C@H](C)[C@H](NC(=O)[C@H](C)NC(=O)[C@H](CO)NC(=O)CNC(=O)[C@H](CO)NC(=O)CNC(=O)[C@H](CCCNC(=N)N)NC(=O)[C@H](CCCNC(=N)N)NC(=O)[C@H](CCCNC(=N)N)NC(=O)[C@H](CCC(N)=O)NC(=O)[C@H](CCCNC(=N)N)NC(=O)[C@H](CCCNC(=N)N)NC(=O)[C@H](CCCCN)NC(=O)[C@H](CCCCN)NC(=O)[C@H](CCCNC(=N)N)NC(=O)CNC(=O)[C@@H](N)Cc1ccc(O)cc1)C(=O)NCC(=O)N[C@@H](CC(N)=O)C(=O)N[C@H](C(=O)N[C@H](C(=O)N[C@@H](CCC(=O)O)C(=O)N[C@@H](C)C(=O)N[C@@H](CC(C)C)C(=O)N[C@@H](Cc1ccccc1)C(=O)N[C@@H](CCC(N)=O)C(=O)O)[C@@H](C)CC)[C@@H](C)O` [SAQ], the negative logarithm of the IC50 (pIC50) is 5.54. Besides, the “Inhibition rate on EV71 virus (%)” value (polypeptide 0.15625 μM) was 3.547% and 2.726% and 6.819%. The “Inhibition rate on EV71 virus (%)” value (polypeptide 0.3125 μM) is 8.964% and 7.902% and 11.0435%. Also, the “Inhibition rate on EV71 virus (%)” value (polypeptide 0.625 μM) is 14.4055% and 11.5364% and 18.402%. For the same molecule, the “Inhibition rate on EV71 virus (%)” value (polypeptide 1.25 μM) is 27.4779% and 24.0778% and 33.4848%. The “Inhibition rate on EV71 virus (%)” value (polypeptide 2.5 μM) was 47.0158% and 47.2468% and 36.2572%. The “Inhibition rate on EV71 virus (%)” value (polypeptide 5 μM) is 75.1367% and 61.8367% and 63.2191%.

The molecule `CC[C@H](C)[C@H](NC(=O)[C@H](C)NC(=O)[C@H](CO)NC(=O)[C@H](CCCNC(=N)N)NC(=O)[C@H](CC(N)=O)NC(=O)[C@H](CC(N)=O)NC(=O)[C@H](Cc1ccc(O)cc1)NC(=O)CNC(=O)[C@H](CO)NC(=O)CNC(=O)[C@H](CCCNC(=N)N)NC(=O)[C@H](CCCNC(=N)N)NC(=O)[C@H](CCCNC(=N)N)NC(=O)[C@H](CCC(N)=O)NC(=O)[C@H](CCCNC(=N)N)NC(=O)[C@H](CCCNC(=N)N)NC(=O)[C@H](CCCCN)NC(=O)[C@H](CCCCN)NC(=O)[C@H](CCCNC(=N)N)NC(=O)CNC(=O)[C@@H](N)Cc1ccc(O)cc1)C(=O)NCC(=O)N[C@@H](CC(N)=O)C(=O)N[C@H](C(=O)N[C@H](C(=O)N[C@@H](CCC(=O)O)C(=O)N[C@@H](C)C(=O)N[C@@H](CC(C)C)C(=O)N[C@@H](Cc1ccccc1)C(=O)N[C@@H](CCC(N)=O)C(=O)O)[C@@H](C)CC)[C@@H](C)O` [YQ] showed a pIC50 of 5.71. For the same molecule, the “Inhibition rate on EV71 virus (%)” value (polypeptide 0.15625 μM) was 5.8298% and 7.33% and 11.0089%. For the setting “polypeptide 0.3125 μM”, the “Inhibition rate on EV71 virus (%)” value was 15.102% and 10.7124% and 13.3881%. For the setting “polypeptide 0.625 μM”, the “Inhibition rate on EV71 virus (%)” value was 23.6157% and 20.9642% and 29.1606%. In addition, the “Inhibition rate on EV71 virus (%)” value (polypeptide 1.25 μM) was 30.9365% and 28.1124% and 32.0401%. The “Inhibition rate on EV71 virus (%)” value (polypeptide 2.5 μM) is 62.0331% and 53.8159% and 52.1987%. Where the note is “polypeptide 5 μM”, the “Inhibition rate on EV71 virus (%)” value is 80.0886% and 71.2711% and 87.578%.

Consider YGRKKRRQRRRGSGAIGNTIEALFQ [AQ], for which the pIC50 is 5.52. The “Inhibition rate on EV71 virus (%)” value (polypeptide 0.15625 μM) was 9.888% and 7.506% and 5.9715%. For the same molecule, the “Inhibition rate on EV71 virus (%)” value (polypeptide 0.3125 μM) is 15.9607% and 11.702% and 12.6022%. Besides, under “polypeptide 0.625 μM”, the “Inhibition rate on EV71 virus (%)” value is 26.3573% and 23.7158% and 19.5264%. For the setting “polypeptide 1.25 μM”, the “Inhibition rate on EV71 virus (%)” value was 33.3847% and 31.7366% and 38.7678%. Under “polypeptide 2.5 μM”, the “Inhibition rate on EV71 virus (%)” value was 58.9642% and 46.161% and 41.3092%. Moreover, the “Inhibition rate on EV71 virus (%)” value (polypeptide 5 μM) was 51.0435% and 51.8675% and 69.1952%.
